Laboratory results as given in ChEMBL document CHEMBL2203104, “Recent advances in antitubercular natural products” (Eur J Med Chem, 2012).
In brackets after ≈: the same amount, converted by molar mass.

Columns and labels:
Format in all cases: functional
[1] = test system: Mycobacterium tuberculosis; assay: Antimycobacterial activity against multidrug-resistant Mycobacterium tuberculosis
[2] = Selectivity index, ratio of IC50 for african green monkey Vero cells to MIC for multidrug-resistant Mycobacterium tuberculosis
[3] = test system: Mycobacterium tuberculosis; assay: Antimycobacterial activity against rifampicin-resistant Mycobacterium tuberculosis

CC(=O)O[C@H]1C2=C(C(=O)C(O)=C(C(C)C)C2=O)[C@@]2(C)CCCC(C)(C)[C@@H]2[C@@H]1O
MIC [1]: 3.12 µg/mL (≈ 7.99 µM)

COc1ccc(C(=O)OC2=C(C(C)C)C(=O)C3=C(C2=O)[C@@]2(C)CCCC(C)(C)[C@@H]2[C@H](O)[C@H]3OC(C)=O)cc1
MIC [1]: 0.39 µg/mL (≈ 0.743 µM) | Selectivity Index [2]: 6.6

C/C=C(/NC(=O)c1csc(-c2csc(-c3ccc4c(n3)-c3csc(n3)C(C(C)(O)C(C)O)NC(=O)c3csc(n3)C(C(C)C)NC(=O)c3csc(n3)/C(=C/OC)NC(=O)C(C(C)O)NC(=O)c3csc-4n3)n2)n1)C(=O)OC (stereo not given) [NOCARDITHIOCIN]
MIC [3]: 0.025 µg/mL (≈ 0.0215 µM)

CC(C)C1=C(O)C(=O)C2=C(C1=O)[C@H](O)C[C@H]1C(C)(C)CCC[C@]21C [HORMINONE]
MIC [1]: 12.5 µg/mL (≈ 37.6 µM)

C=C(C)C(CC[C@@H](C)[C@H]1CC[C@@]2(C)[C@@H]3CC[C@H]4C(C)(C)[C@@H](O)CC[C@@]45C[C@@]35CC[C@]12C)OO (stereo not given in full)
MIC [1]: 25 µg/mL (≈ 54.5 µM)

CC(C)C1=C(O)C(=O)C2=C(C=C[C@H]3C(C)(C)CCC[C@]23C)C1=O
MIC [1]: 12.5 µg/mL (≈ 39.8 µM)

C[C@H](C/C=C/C(C)(C)OO)[C@H]1CC[C@@]2(C)[C@@H]3CC[C@H]4C(C)(C)[C@@H](O)CC[C@@]45C[C@@]35CC[C@]12C
MIC [1]: 12.5 µg/mL (≈ 27.2 µM)

CC(=O)O[C@H]1C2=C(C(=O)C(OC(=O)c3ccc(Cl)cc3)=C(C(C)C)C2=O)[C@@]2(C)CCCC(C)(C)[C@@H]2[C@@H]1O
MIC [1]: 0.78 µg/mL (≈ 1.47 µM)

CC(C)C1=C(O)C(=O)C2=C(C1=O)[C@H](O)[C@@H](O)[C@H]1C(C)(C)CCC[C@]21C
MIC [1]: 12.5 µg/mL (≈ 35.9 µM)
